Reference: patent US20090306060A1 (priority 2004, published 2009)
Read-outs that look alike come from different tables or passages of the source.

System: hybrid corn varieties
Assay type: in vivo
Conditions: for GY BU (2) (Grain Yield in bushels) / PC # (1): IFSA Inbred FR-A
[1] = Fludioxonil 3.5 GA/100 Kg seed, Azoxystrobin 1 GA/100 Kg seed
[2] = IFSA Inbred FR-C, Fludioxonil 3.5 GA/100 Kg seed, Azoxystrobin 1 GA/100 Kg seed
[3] = IFSA Inbred FR-D, Fludioxonil 3.5 GA/100 Kg seed, Azoxystrobin 1 GA/100 Kg seed
[4] = IFSA Inbred FR-F, Fludioxonil 3.5 GA/100 Kg seed, Azoxystrobin 1 GA/100 Kg seed
[5] = IFSA Inbred FR-G, Fludioxonil 3.5 GA/100 Kg seed, Azoxystrobin 1 GA/100 Kg seed
[6] = IFSA Inbred W-A, Fludioxonil 3.5 GA/100 Kg seed, Azoxystrobin 1 GA/100 Kg seed
[7] = IFSA Inbred W-B, Fludioxonil 3.5 GA/100 Kg seed, Azoxystrobin 1 GA/100 Kg seed
[8] = IFSA Inbred FR-C, Fludioxonil 2.5 GA/100 Kg seed
[9] = IFSA Inbred FR-D, Fludioxonil 2.5 GA/100 Kg seed
[10] = IFSA Inbred FR-F, Fludioxonil 2.5 GA/100 Kg seed
[11] = IFSA Inbred FR-G, Fludioxonil 2.5 GA/100 Kg seed
[12] = IFSA Inbred W-A, Fludioxonil 2.5 GA/100 Kg seed
[13] = IFSA Inbred W-B, Fludioxonil 2.5 GA/100 Kg seed

SMILES | GY BU (2) (Grain Yield in bushels) [1] [a BU] | PC # (1) [1] [a] | GY BU [2] | PC # [2] [ab] | GY BU [3] [a BU] | PC # [3] [a] | GY BU [4] | PC # [4] | GY BU [5] [a BU] | PC # [5] | GY BU [6] [ab BU] | PC # [6] [a] | GY BU [7] [a BU] | PC # [7] | further results
CO/C=C(/C(=O)OC)c1ccccc1Oc1cc(Oc2ccccc2C#N)ncn1 [Azoxystrobin, azoxystrobin] | 168 | 23232 | 187 ab BU | 24086 | 193 | 23574 | 179 b BU | 18107 bc | 89 | 13153 a | 173 | 19645 | 204 | 23574 ab | –
N#Cc1c[nH]cc1-c1cccc2c1OC(F)(F)O2 [Fludioxonil, fludioxonil] | 180 | 23744 | 176 b BU | 23915 | 185 | 24599 | 225 a BU | 24428 a | 85 | 11787 ab | 180 | 19986 | 204 | 22036 b | GY BU (2) (Grain Yield in bushels) (Fludioxonil 2.5 GA/100 Kg seed): 181 a BU; PC # (1) (Fludioxonil 2.5 GA/100 Kg seed): 23403 a; GY BU [8]: 198 a BU; PC # [8]: 24428 a; GY BU [9]: 184 a BU; PC # [9]: 23574 a; GY BU [10]: 183 b BU; PC # [10]: 19986 b; GY BU [11]: 83 a BU; PC # [11]: 13495 a; GY BU [12]: 172 ab BU; PC # [12]: 19474 a; GY BU [13]: 215 a BU; PC # [13]: 24599 a
